Results published in patent US9814724B2, “Antitumor effect potentiator and antitumor agent” (TAIHO PHARMACEUTICAL CO., LTD., priority 2003, dated 2017).

How the values were obtained:
[1] = Body weight change as parameter of whole-body toxicity (Example 3); conditions: folinic acid 20.0 mg/kg/day (as calcium folinate), alone or with tegafur+gimeracil+oteracil potassium 5.7+1.7+5.6 mg/kg/day, oral once a day for 14 days; 15 days after beginning of administration
Source text: A cubic fragment measuring about 2 mm in diameter of the human colon cancer cell line KM20C was subcutaneously implanted on the backs of male nude mice (BALB/cA-nu). When the average tumor volume (=major axis (mm)×minor axis (mm)^2) reached about 200 mm^3, the mice were divided into groups.
A combined drug containing a tegafur/gimeracil/oteracil potassium combined drug (molar ratio of tegafur:gimeracil oteracil potassium=1:0.4:1) and calcium folinate, dissolved or suspended in a 0.5% hydroxypropylmethyl cellulose (HPMC) solution was orally administered to the mice once a day in amounts as shown in Table 3 for 14 consecutive days from the day after grouping.
The body weight change was calculated by subtracting the body weight of mice 15 days after the beginning of administration from the body weight of mice upon grouping used as a parameter of whole-body toxicity of the pharmaceutical preparation. Although calcium folinate was used in the experiment, the dosage given in the table is that calculated as the amount of folinic acid.

[2] = Body weight change as parameter of whole-body toxicity (Example 2); conditions: folinic acid 40.0 mg/kg/day (given as calcium folinate), alone or with tegafur+gimeracil+oteracil potassium 8.7+2.5+8.5 mg/kg/day or tegafur+uracil 15.1+33.8 mg/kg/day, oral once a day for 9 days; 10 days after beginning of administration
Source text: A cubic fragment measuring about 2 mm in diameter of the human colon cancer cell line Colon 38 was subcutaneously implanted on the backs of male mice C57BL/6. When the average tumor volume (=major axis (mm)×minor axis (mm)^2) reached about 150 mm^3, the mice were divided into groups.
The following preparations each dissolved or suspended in a 0.5% hydroxypropylmethyl cellulose (HPMC) solution were orally administered to the mice once a day in amounts as shown in Table 2 for 9 consecutive days from the day after grouping: calcium folinate; a tegafur/gimeracil/oteracil potassium combined drug (molar ratio of tegafur:gimeracil:oteracil potassium=1:0.4:1); a combined drug containing the tegafur/gimeracil/oteracil potassium combined drug described above and calcium folinate; a tegafur/uracil combined drug (molar ratio of tegafur:uracil=1:4); and a combined drug containing the tegafur/uracil combined drug described above and calcium folinate.
(§2) The body weight change was calculated by subtracting the body weight of mice 10 days after the beginning of administration from the body weight of mice upon grouping and used as a parameter of whole-body toxicity of the pharmaceutical preparation.

[3] = Body weight change as parameter of whole-body toxicity (Example 1); conditions: folinic acid 20.0 mg/kg/day (given as calcium folinate), alone or with tegafur+gimeracil+oteracil potassium 8.3+2.4+8.1 mg/kg/day or tegafur+uracil 20.0+44.8 mg/kg/day, oral once a day for 9 days; 10 days after beginning of administration
Source text: A cubic fragment measuring about 2 mm in diameter of the human colon cancer cell line KM20C was subcutaneously implanted on the backs of male nude mice BALB/c-nu/nu. When the average tumor volume (=major axis (mm)×minor axis (mm)^2) reached about 200 mm^3, the mice were divided into groups.
The following preparations each dissolved or suspended in a 0.5% hydroxypropylmethyl cellulose (HPMC) solution were orally administered to the mice once a day in amounts as shown in Table 1 for 9 consecutive days from the day after grouping: calcium folinate; a tegafur/gimeracil/oteracil potassium combined drug (molar ratio of tegafur:gimeracil:oteracil potassium=1:0.4:1); a combined drug containing the tegafur/gimeracil/oteracil potassium combined drug described above and calcium folinate; a tegafur/uracil combined drug (molar ratio of tegafur:uracil=1:4); and a combined drug containing the tegafur/uracil combined drug described above and calcium folinate.
as §2

[4] = test system: human colon cancer cell line KM20C; experiment: Effect of folinate dosage on the antitumor effect on implanted KM20C tumor in nude mice, 14-day oral dosing (Example 3); type: in vivo, male nude mice (BALB/cA-nu); conditions: for enhancement of the antitumor effect of the tegafur/gimeracil/oteracil potassium combined drug: KM20C
Protocol: The ratio of the tumor volume 15 days after grouping to the tumor volume upon grouping was calculated to obtain a relative tumor volume. The tumor growth inhibition ratio (%) was determined using the relative tumor volumes of the drug-administered groups and the control group.

[5] = test system: human colon cancer cell line KM20C; experiment: Antitumor effect on subcutaneously implanted KM20C tumor in nude mice, 9-day oral dosing (Example 1); type: in vivo, male nude mice BALB/c-nu/nu; conditions: folinic acid 20.0 mg/kg/day (given as calcium folinate), alone or with tegafur+gimeracil+oteracil potassium 8.3+2.4+8.1 mg/kg/day or tegafur+uracil 20.0+44.8 mg/kg/day, oral once a day for 9 days, 10 days after grouping
Protocol: The ratio of the tumor volume 10 days after grouping to the tumor volume upon grouping was calculated to obtain a relative tumor volume. The tumor growth inhibition ratio (%) was determined using the relative tumor volumes of the drug-administered groups and the control group.

[6] = Antitumor effect on subcutaneously implanted Colon 38 tumor in mice, 9-day oral dosing (Example 2); type: in vivo, male mice C57BL/6; conditions: folinic acid 40.0 mg/kg/day (given as calcium folinate), alone or with tegafur+gimeracil+oteracil potassium 8.7+2.5+8.5 mg/kg/day or tegafur+uracil 15.1+33.8 mg/kg/day, oral once a day for 9 days; 12 days after grouping
Protocol: (§1) The ratio of the tumor volume 12 days after grouping to the tumor volume upon grouping was calculated to obtain a relative tumor volume. The tumor growth inhibition ratio (%) was determined using the relative tumor volumes of the drug-administered groups and the control group.

[7] = test system: human colon cancer cell line Colon 38; experiment: as above; type: in vivo, male mice C57BL/6; conditions: folinic acid 40.0 mg/kg/day (given as calcium folinate), alone or with tegafur+gimeracil+oteracil potassium 8.7+2.5+8.5 mg/kg/day or tegafur+uracil 15.1+33.8 mg/kg/day, oral once a day for 9 days; 12 days after grouping, vs control group
Protocol: as §1

5-FU degradation = conditions: compared with uracil; cited from earlier work

Row | Compound | Body weight change [1] [g] | Body weight change [2] [g] | Body weight change [3] [g] | enhancement of the antitumor effect of the tegafur/gimeracil/oteracil potassium combined drug ([4]; calcium folinate at the dose of 2.5 mg/kg/day) | enhancement of the antitumor effect of the tegafur/gimeracil/oteracil potassium combined drug ([4]; calcium folinate at the dose of 5 mg/kg/day) | Relative tumor volume (Mean ± SD) ([4]; folinic acid 20.0 mg/kg/day (as calcium folinate), alone or with tegafur+gimeracil+oteracil potassium 5.7+1.7+5.6 mg/kg/day, oral once a day for 14 days, 15 days after grouping) | Tumor growth inhibition ratio (%) ([4]; folinic acid 20.0 mg/kg/day (as calcium folinate), alone or with tegafur+gimeracil+oteracil potassium 5.7+1.7+5.6 mg/kg/day, oral once a day for 14 days, 15 days after grouping, vs control group) | Relative tumor volume (Mean ± SD) [5] | Tumor growth inhibition ratio (%) ([5]; vs control group) | Relative tumor volume (Mean ± SD) [6] | Tumor growth inhibition ratio (%) [7] [%] | 5-FU degradation inhibitory effect relative to that of uracil (5-FU degradation)
1 | Nc1nc(=O)c2c([nH]1)NCC(CNc1ccc(C(=O)N[C@@H](CCC(=O)O)C(=O)O)cc1)N2C=O (mixture of isomers) [folinic acid] | -0.6 | 0.7 | -0.8 | some enhancement | clear enhancement | 4.50 ± 1.25 ^ | 5.4 | 2.24 | 6.1 | 8.78 | 7.5 | –
2 | Oc1cc(O)c(Cl)cn1 [gimeracil, 2,4-dihydroxy-5-chloropyridine] | – | – | – | – | – | – | – | – | – | – | – | about 200 times
